This is an account of results in patent publication US12187672B2, “1,2-diacylglycerol compound, preparation method therefor, and immunomodulator containing same as active ingredient” (ENZYCHEM LIFESCIENCES CORPORATION, priority 2018, dated 2025).

One test relates to CXCL8 (IL-8). In words: CXCL8 (IL-8) expression reduction in Gemcitabine-treated THP-1 cells (ELISA). The note with it: for CXCL8 [IL-8] concentration (average ± deviation): THP-1 cells. Type of test: cell-based, human. The procedure: In RPMI (Hyclone, Thermo Scientific) medium to which 10% Fetal Bovine Serum was added, THP-1 cells, a human macrophage family, were suspended at a concentration of 1×10^5 cells/ml, and culture was conducted in a 5% CO2 humidified incubator at 37° C. The cultured THP-1 cells were inoculated into a 12 well plate by 1×10^6 cells/ml and stabilized for 30 minutes. Then, the culture solution was treated with a glycerol derivative compounds of the type shown in Table 6 below for 1 hour and then was treated with Gemcitabine (2 μg/ml) of a cell stimulator, and subsequent further incubation was conducted for 24 hours. Thereafter 1.5 ml of the culture supernatant was collected for each well and centrifuged (at 3000 rpm, 5 minutes) to recover the supernatant. The CXCL8 (IL-8) level in the recovered supernatant was measured according to the manual provided by the human IL-8 ELISA set (BD Biosciences). The day before ELISA was carried out, the IL-8 capture antibody was diluted in phosphate buffered saline, coated on a microwell, and then stored at 4° C. overnight. Each well was washed three times with a buffer solution and then blocked with 2% Bovine Serum Albumin (BSA) for 1 hour at room temperature. After washing with washing buffer solution three times, 100 μl of sample was dispensed into each well and left at room temperature for 2 hours. Detection antibody which was washed 3 times with washing buffer and diluted was dispensed into each well and allowed to react at room temperature for 1 hour and left at room temperature for 1 hour. Thereafter, the secondary HRP conjugated antibody was reacted at room temperature for 30 minutes, washed three times with a washing buffer, and treated with 50 μl of stop solution for each well, and then the optical density was measured at 450 nm with an ELISA microplate leader.
(In general: An ELISA detects its analyte on a solid surface through an enzyme-linked reagent.)

A further test has as its system IL-6. In words: LPS-induced IL-6 secretion reduction in RAW264.7 cells (ELISA). The note with it: sample 100 μg/ml 1 h, then LPS 1 μg/ml 24 h, Table 3. Format: cell-based, mouse. As to the method: In DMEM (Dulbecco Modified Eagle Medium, Hyclone, Thermo Scientific) medium to which 10% Fetal Bovine Serum was added, RAW264.7 cells, a mouse macrophage family, were suspended at a concentration of 1×10^5 cells/ml, and culture was conducted in a 5% CO2 humidified incubator at 37° C. The cultured RAW264.7 cells were inoculated into a 48 well plate by 5×10^4 cells/ml and stabilized for 15 hours. Then, the culture solution was treated with a glycerol derivative compounds of the type shown in Table 2 and 3 below for 1 hour and then was treated with 1 μg/ml of Lipopolysaccaride (LPS) of a cell stimulator, and subsequent further incubation was conducted for 24 hours. Thereafter 0.5 ml of the culture supernatant was collected for each well and centrifuged (at 3000 rpm, 5 minutes) to recover the supernatant. The IL-6 level in the recovered supernatant was measured according to the manual provided by the Mouse IL-6 ELISA set (BD Biosciences). The day before ELISA was carried out, the IL-6 capture antibody was diluted in phosphate buffered saline, coated on a microwell, and then stored at 4° C. overnight. Each well was washed three times with a buffer solution and then blocked with 2% Bovine Serum Albumin (BSA) for 1 hour at room temperature. After washing with buffer solution three times, […] of sample was dispensed into each well and left at room temperature for 2 hours. Detection antibody which was washed 3 times with washing buffer solution and diluted was dispensed into each well and allowed to react at room temperature for 1 hour and left at room temperature for 1 hour. Thereafter, the secondary HRP conjugated antibody was reacted at room temperature for 30 minutes, washed three times with a buffer solution, and treated with 50 μl of stop solution for each well, and then the optical density was measured at 450 nm with an ELISA microplate leader. The results of the IL-6 expression reduction rate (IL-6 concentration) are shown in Table 2, Table 3, FIG. 1 and FIG. 2 below.

A further test relates to STAT3. In words: STAT3 activity, pGL4.47 SIE luciferase reporter in LPS-treated RAW264.7 cells. Format: cell-based, mouse. The note with it: sample 100 μg/ml 1 h, then LPS 1 μg/ml 18 h. As to the method:
pGL4.47 [luc2P/SIE/Hygro] vector containing the sis-Inducible Element that binds to STAT3 was injected into RAW264.7 cells to confirm the degree of STAT3 activity. In DMEM (Hyclone, Thermo Scientific) medium to which 10% Fetal Bovine Serum was added, RAW264.7 cells were cultured at a concentration of 1×10^5 cells/ml, and maintained in a 5% CO2 humidified incubator at 37° C. The cultured RAW264.7 cells were inoculated into a 48 well plate by 1×10^5 cells/ml and stabilized for 18 hours. Thereafter, the pGL4.47 [luc2P/SIE/Hygro] vector containing sis-Inducible Element was mixed with Attractene to induce complex formation at room temperature for 15 minutes. This complex was treated with the cells and then further incubated for 18 hours. Thereafter, the culture solution was treated with a glycerol derivative compounds of the type shown in Table 5 below for 1 hour and then LPS (1 μg/ml) was treated and further incubated for 18 hours for STAT3 activity. Thereafter, the culture supernatant was removed for each well, and the remaining cells were lysed with a cell lysis buffer, and then cell lysate was recovered. 90 μl of luciferase reagent was mixed with 10 μl of the recovered cell lysate, and the degree of fluorescence was confirmed using a luminometer.
(In general: A reporter such as luciferase makes a cellular process visible.)

Another test has as its system IL-4. In words: PKC activator-induced IL-4 secretion reduction in EL-4 cells (ELISA). The settings on record: sample 100 μg/ml 2 h, then PKC activator 18 h, Table 12. Type of test: cell-based, mouse. The procedure: In DMEM (Dulbecco Modified Eagle Medium, Hyclone, Thermo Scientific) medium to which 10% Fetal Bovine Serum was added, EL-4 cells, a mouse lymphoma family, were subcultured at a concentration of 1×10^5 cells/ml, and culture was conducted in a 5% CO2 humidified incubator at 37° C. The cultured EL-4 cells were inoculated into a 48 well plate by 5×10^4 cells/ml and stabilized for 30 hours. Then, the culture solution was treated with a glycerol derivative compounds of the type shown in Table 11 and 12 below for 2 hours. Thereafter, it were treated with 0.5 μg/ml of PKC activator (p10, some kind of PMA) of a cell stimulator, and subsequent further incubation were conducted for 18 hours. Thereafter 0.5 ml of the culture supernatant was collected for each well and centrifuged (at 3000 rpm, 5 minutes) to recover the supernatant. The IL-4 level in the recovered supernatant was measured according to the manual provided by the Mouse IL-4 ELISA set (BD Biosciences). The day before ELISA was carried out, the IL-4 capture antibody was diluted in phosphate buffered saline, coated on a microwell, and then stored at 4° C. overnight. Each well was washed three times with a buffer solution and then blocked with 2% Bovine Serum Albumin (BSA) for 1 hour at room temperature. After washing with buffer solution three times, 100 μl of sample was dispensed into each well and left at room temperature for 2 hours. Detection antibody which was washed 3 times with washing buffer solution and diluted was dispensed into each well and allowed to react at room temperature for 1 hour and left at room temperature for 1 hour. Thereafter, the secondary HRP conjugated antibody was reacted at room temperature for 30 minutes, washed three times with buffer solution, and treated with 50 μl of stop solution for each well, and then the optical density was measured at 450 nm with an ELISA microplate leader. The results of the measured expression reduction rate ([…]) were shown in Table 11, Table 12, FIG. 11 and FIG. 12 below.

A further test relates to HL-60 cells. The test can be described thus: Migration of HL-60 cell line toward THP-1 culture supernatant (transmigration assay). Type of test: cell-based, human. The procedure:
In RPMI (Hyclone, Thermo Scientific) medium to which 10% Fetal Bovine Serum was added, THP-1 cells, a human macrophage family, were subcultured at a concentration of 1×10^5 cells/ml, and culture was conducted in a 5% CO2 humidified incubator at 37° C. In order to prepare the THP-1 cell culture solution to be treated in the lower well during the transmigration assay, first, the cultured THP-1 cells were inoculated into a 12 well plate by 1×10^6 cells/ml and stabilized for 30 minutes. Then, the culture solution was treated with a glycerol derivative compounds of the type shown in Table 7 below for 1 hour and then was treated with Gemcitabine (2 μg/ml) of a cell stimulator, and subsequent further incubation was conducted for 24 hours. Thereafter 1.5 ml of the culture supernatant was collected for each well and centrifuged (at 3000 rpm, 5 minutes) to recover the supernatant. The CXCL8 (IL-8) level in the recovered supernatant was measured according to the manual provided by Cultrex 96 well Laminin Cell Invasion assay. The day before Transmigration assay was carried out, a 1× Lamin I solution was treated in the upper Invasion Chamber and coated. Thereafter, in RPMI (Hyclone, Thermo Scientific) medium to which 10% Fetal Bovine Serum was added, the cultured HL-60 cells were despensed of 5×10^4 cells/chamber, and 150 μl of the THP-1 culture supernatant prepared in advance was added to the lower chamber. Thereafter the upper chamber was removed, and the cells were attached to the bottom of the lower chamber by a centrifuge, and then the supernatant was removed. Cell dissociation/Calcein-AM solution was added and reacted for 1 hour. Then, the value obtained using a fluorescence spectroscopy was calculated by converting the number of cells.

A further test deals with STAT6. In words: IL-4-induced STAT6 activity, pGL4-STAT6 luciferase reporter in A549 cells. Type of test: cell-based. The procedure: In DMEM (Dulbecco Modified Eagle Medium, Hyclone, Thermo Scientific) medium to which 10% Fetal Bovine Serum was added, A549 cells were subcultured at a concentration of 1×10^5 cells/ml, and culture was conducted in a 5% CO2 humidified incubator at 37° C. The cultured A549 cells were inoculated into a 48 well plate by 1×10^5 cells/ml and stabilized for 18 hours. Thereafter, pGL4-STAT6 reporter vector containing a STAT6 binding promoter portion was mixed with Attractene to induce complex formation at room temperature for 15 minutes. This complex was treated with the cells and then further incubated for 24 hours. Thereafter, the culture solution was treated with a glycerol derivative compounds of the type shown in Table 9 and 10 below for 1 hour, and then IL-4 (2 ng/ml or 10 ng/ml) was further incubated for 20 hours for STAT6 activity. Thereafter, the culture supernatant was removed for each well, and the remaining cells were lysed with a cell lysis buffer, and then cell lysate was recovered. 90 μl of luciferase reagent was mixed with 10 μl of the recovered cell lysate, and the degree of fluorescence was confirmed using a luminometer. The results are shown in Table 9, Table 10, FIG. 9 and FIG. 10 below.

[1] abbreviates: sample 100 μg/ml 1 h, then IL-4 (10 ng/ml) 20 h, Table 10.
[2] abbreviates: THP-1 cells treated with Gemcitabine.

With `CCCCC/C=C\C/C=C\CCCCCCCC(=O)OC(COC(=O)CCCCCCCC)COC(=O)CCCCCCCCCCCCCCC` (stereo not shown) [EC_A84], the “CXCL8 [IL-8] concentration (average ± deviation)” value in the test on CXCL8 (IL-8) (sample 100 μg/ml 1 h, then Gemcitabine 2 μg/ml 24 h) was determined as 110.5 ± 6.8 pg/µL. Also, the “IL-6 concentration (average ± deviation)” value with IL-6 is 0.799 ± 0.025 pg/µL. Further, in the test with STAT3, the “STAT3 activity_Luciferase activity (average ± deviation)” value was determined as 780 ± 27.5. For the same molecule, the “IL-4 concentration (average ± deviation)” value in the test with IL-4 worked out at 615.6 ± 25.0 pg/µL. In addition, in the test with HL-60 cells (supernatant of THP-1 cells treated with sample 100 μg/ml 1 h, then Gemcitabine 2 μg/ml 24 h), the “Number of HL-60 cells migrated through Transwell” value came out at 2197.8 Cell Number.
`CCCCC/C=C\C/C=C\CCCCCCCC(=O)OC(COC(=O)CCCCCCCCCCC)COC(=O)C(C)(C)C` (stereo not shown) [EC_A95]: in the test with IL-6, the “IL-6 concentration (average ± deviation)” value worked out at 0.777 ± 0.020 pg/µL. Also, the “STAT3 activity_Luciferase activity (average ± deviation)” value in the test with STAT3 is 663 ± 61.5. Also, the “IL-4 concentration (average ± deviation)” value in the test with IL-4 turned out to be 680.1 ± 12.2 pg/µL. Moreover, the “STAT6 activity_Luciferase activity (average ± deviation)” value in the test with STAT6 (setting [1]) is given as 13649.0 ± 7369.3.
In the same order, the values of `CCCCC/C=C\C/C=C\CCCCCCCC(=O)OC(COC(=O)CCCCCCCCCCC)COC(=O)C(C)C` (stereo not shown) [EC_A94] are 0.702 ± 0.079 pg/µL, 640 ± 275.7, 523.8 ± 62.3 pg/µL and 14677.5 ± 2168.7.
Turning to `Nc1ccn([C@@H]2O[C@H](CO)[C@@H](O)C2(F)F)c(=O)n1` [Gemcitabine, reference compound], the “increase of CXCL8 (IL-8) secretion compared to the negative control group” value in the test with CXCL8 (IL-8) (setting [2]) is recorded as “about 13 times”. Further, the “CXCL8 [IL-8] concentration (average ± deviation)” value with CXCL8 (IL-8) (Gemcitabine 2 μg/ml alone) was determined as 104.6 ± 1.5 pg/µL. In addition, the “increase of neutrophil cell migration compared to the negative control group” value in the test on HL-60 cells (setting [2]) is “about twice”. The “Number of HL-60 cells migrated through Transwell” value in the test with HL-60 cells (supernatant of THP-1 cells treated with Gemcitabine 2 μg/ml alone) is recorded as 5022.9 Cell Number.

B1: IL-4: IL-4 used to induce STAT6 activity in A549 cells (protein, UniProt P05112 25-153, looked up)
Interleukin-4: HKCDITLQEIIKTLNSLTEQKTLCTELTVTDIFAASKNTTEKETFCRAATVLRQFYSHHEKDTRCLGATAQQFHRHKQLIRFLKRLDRNLWGLAGLNSCPVKEANQSTLENFLERLKTIMREKYSKCSS
Consider B1, for which the “STAT6 activity_Luciferase activity (average ± deviation)” value was determined as 982.0 ± 38.7 in the test with STAT6 (IL-4 alone, concentration printed 2 (head μg/ml; method 2 ng/ml), Table 9) and 22846.2 ± 2157.3 with STAT6 (IL-4 alone, concentration printed 10 (head μg/ml; method 10 ng/ml), Table 10).
